Numbers after ± are expanded uncertainties.
Assays:
[1] = molar heat capacity at constant pressure; details: 101.33 kPa, Liquid
[2] = for surface tension liquid-gas: Maximal bubble pressure; for viscosity / mass density / thermal conductivity: 101.33 kPa; for viscosity / mass density / thermal conductivity / vapor or sublimation pressure: Liquid; for thermal conductivity: Hot wire method

SMILES: C[Si]1(C)O[Si](C)(C)O[Si](C)(C)O[Si](C)(C)O[Si](C)(C)O1 [decamethylcyclopentasiloxane]
- molar heat capacity at constant pressure ([1]; 288.78 K): 636.3 ± 4.9 J/K/mol
- molar heat capacity at constant pressure ([1]; 293.13 K): 638.5 ± 4.9 J/K/mol
- molar heat capacity at constant pressure ([1]; 297.95 K): 640.6 ± 5 J/K/mol
- molar heat capacity at constant pressure ([1]; 303.18 K): 643.1 ± 5 J/K/mol
- molar heat capacity at constant pressure ([1]; 308.95 K): 644.5 ± 5 J/K/mol
- molar heat capacity at constant pressure ([1]; 313.15 K): 647.7 ± 5 J/K/mol
- molar heat capacity at constant pressure ([1]; 319 K): 650.4 ± 5 J/K/mol
- molar heat capacity at constant pressure ([1]; 323.15 K): 652.4 ± 5.1 J/K/mol
- molar heat capacity at constant pressure ([1]; 329.05 K): 655.1 ± 5.1 J/K/mol
- molar heat capacity at constant pressure ([1]; 334.74 K): 657.9 ± 5.1 J/K/mol
- molar heat capacity at constant pressure ([1]; 338.5 K): 659.5 ± 5.1 J/K/mol
- molar heat capacity at constant pressure ([1]; 342.08 K): 661.2 ± 5.1 J/K/mol
- molar heat capacity at constant pressure ([1]; 349.25 K): 664.5 ± 5.1 J/K/mol
- molar heat capacity at constant pressure ([1]; 352.2 K): 667.1 ± 5.2 J/K/mol
- molar heat capacity at constant pressure ([1]; 356.83 K): 668 ± 5.2 J/K/mol
- molar heat capacity at constant pressure ([1]; 361.28 K): 670.1 ± 5.2 J/K/mol
- molar heat capacity at constant pressure ([1]; 366.35 K): 672.4 ± 5.2 J/K/mol
- molar heat capacity at constant pressure ([1]; 370.25 K): 674.2 ± 5.2 J/K/mol
- molar heat capacity at constant pressure ([1]; 375.43 K): 676.6 ± 5.2 J/K/mol
- molar heat capacity at constant pressure ([1]; 380.95 K): 679.1 ± 5.3 J/K/mol
- molar heat capacity at constant pressure ([1]; 388.65 K): 682.5 ± 5.3 J/K/mol
- molar heat capacity at constant pressure ([1]; 391.43 K): 684 ± 5.3 J/K/mol
- molar heat capacity at constant pressure ([1]; 399.84 K): 687.9 ± 5.3 J/K/mol
- molar heat capacity at constant pressure ([1]; 401.55 K): 688.6 ± 5.3 J/K/mol
- molar heat capacity at constant pressure ([1]; 407.15 K): 691.2 ± 5.4 J/K/mol
- molar heat capacity at constant pressure ([1]; 412.77 K): 693.8 ± 5.4 J/K/mol
- molar heat capacity at constant pressure ([1]; 419.95 K): 697.1 ± 5.4 J/K/mol
- molar heat capacity at constant pressure ([1]; 425.95 K): 698.5 ± 5.4 J/K/mol
- molar heat capacity at constant pressure ([1]; 433.28 K): 703.2 ± 5.4 J/K/mol
- molar heat capacity at constant pressure ([1]; 439.98 K): 706.3 ± 5.5 J/K/mol
- molar heat capacity at constant pressure ([1]; 444.9 K): 709.2 ± 5.5 J/K/mol
- molar heat capacity at constant pressure ([1]; 452.4 K): 711.9 ± 5.5 J/K/mol
- molar heat capacity at constant pressure ([1]; 463.15 K): 716.9 ± 5.6 J/K/mol
- molar heat capacity at constant pressure ([1]; 469.05 K): 719.5 ± 5.6 J/K/mol
- molar heat capacity at constant pressure ([1]; 473.15 K): 721.5 ± 5.6 J/K/mol
- surface tension liquid-gas ([2]; 293.15 K): 18.04 ± 0.16 mN/m
- viscosity ([2]; 293.15 K): 4.28 ± 0.13 mPa·s
- mass density ([2]; 295.05 K): 956.75 ± 0.75 kg/m3
- viscosity ([2]; 298.15 K): 3.87 ± 0.12 mPa·s
- thermal conductivity ([2]; 298.15 K): 0.1255 ± 0.0005 W/m/K
- mass density ([2]; 300.1 K): 951.14 ± 0.78 kg/m3
- surface tension liquid-gas ([2]; 303.15 K): 17.4 ± 0.16 mN/m
- viscosity ([2]; 303.15 K): 3.48 ± 0.11 mPa·s
- mass density ([2]; 303.95 K): 946.93 ± 0.81 kg/m3
- mass density ([2]; 310.3 K): 939.94 ± 0.85 kg/m3
- surface tension liquid-gas ([2]; 313.15 K): 16.71 ± 0.16 mN/m
- viscosity ([2]; 313.15 K): 2.82 ± 0.09 mPa·s
- mass density ([2]; 313.17 K): 936.67 ± 0.87 kg/m3
- mass density ([2]; 320.5 K): 928.72 ± 0.92 kg/m3
- surface tension liquid-gas ([2]; 323.15 K): 15.99 ± 0.15 mN/m
- viscosity ([2]; 323.15 K): 2.38 ± 0.07 mPa·s
- mass density ([2]; 325.6 K): 923.12 ± 0.96 kg/m3
- viscosity ([2]; 332.95 K): 2.02 ± 0.06 mPa·s
- surface tension liquid-gas ([2]; 333.15 K): 15.42 ± 0.15 mN/m
- mass density ([2]; 333.15 K): 915.02 ± 1 kg/m3
- mass density ([2]; 340.9 K): 906.3 ± 1.1 kg/m3
- surface tension liquid-gas ([2]; 343.15 K): 14.67 ± 0.15 mN/m
- viscosity ([2]; 343.15 K): 1.71 ± 0.05 mPa·s
- thermal conductivity ([2]; 343.15 K): 0.1186 ± 0.0005 W/m/K
- mass density ([2]; 346.05 K): 900.69 ± 1.1 kg/m3
- vapor or sublimation pressure ([2]; 348.23 K): 0.703 ± 0.08 kPa
- vapor or sublimation pressure ([2]; 350.87 K): 0.801 ± 0.08 kPa
- vapor or sublimation pressure ([2]; 351.11 K): 0.82 ± 0.08 kPa
- mass density ([2]; 353.1 K): 892.8 ± 1.1 kg/m3
- surface tension liquid-gas ([2]; 353.15 K): 13.98 ± 0.14 mN/m
- viscosity ([2]; 353.15 K): 1.48 ± 0.05 mPa·s
- vapor or sublimation pressure ([2]; 355.91 K): 1.103 ± 0.08 kPa
- vapor or sublimation pressure ([2]; 357.29 K): 1.207 ± 0.08 kPa
- vapor or sublimation pressure ([2]; 361.2 K): 1.468 ± 0.081 kPa
- surface tension liquid-gas ([2]; 363.15 K): 13.3 ± 0.14 mN/m
- mass density ([2]; 366.4 K): 878.24 ± 1.2 kg/m3
- vapor or sublimation pressure ([2]; 370.08 K): 2.381 ± 0.081 kPa
- surface tension liquid-gas ([2]; 373.15 K): 12.64 ± 0.14 mN/m
- mass density ([2]; 373.15 K): 870.77 ± 1.3 kg/m3
- viscosity ([2]; 373.15 K): 1.11 ± 0.04 mPa·s
- vapor or sublimation pressure ([2]; 374.37 K): 2.913 ± 0.081 kPa
- vapor or sublimation pressure ([2]; 377.85 K): 3.452 ± 0.081 kPa
- vapor or sublimation pressure ([2]; 378.07 K): 3.482 ± 0.081 kPa
- vapor or sublimation pressure ([2]; 380.74 K): 3.901 ± 0.082 kPa
- mass density ([2]; 381.7 K): 861.4 ± 1.4 kg/m3
- mass density ([2]; 391.9 K): 850.17 ± 1.4 kg/m3
- surface tension liquid-gas ([2]; 393.15 K): 11.28 ± 0.13 mN/m
- viscosity ([2]; 393.15 K): 0.86 ± 0.03 mPa·s
- vapor or sublimation pressure ([2]; 394.66 K): 7.191 ± 0.083 kPa
- mass density ([2]; 397 K): 844.55 ± 1.5 kg/m3
- vapor or sublimation pressure ([2]; 398.63 K): 8.45 ± 0.084 kPa
- vapor or sublimation pressure ([2]; 402.72 K): 9.938 ± 0.084 kPa
- mass density ([2]; 407.2 K): 833.32 ± 1.6 kg/m3
- vapor or sublimation pressure ([2]; 412.81 K): 14.52 ± 0.086 kPa
- surface tension liquid-gas ([2]; 413.15 K): 9.93 ± 0.12 mN/m
- mass density ([2]; 413.15 K): 826.73 ± 1.6 kg/m3
- viscosity ([2]; 413.15 K): 0.69 ± 0.02 mPa·s
- vapor or sublimation pressure ([2]; 416.46 K): 16.55 ± 0.088 kPa
- mass density ([2]; 417.4 K): 822.08 ± 1.6 kg/m3
- mass density ([2]; 422.5 K): 816.45 ± 1.7 kg/m3
- vapor or sublimation pressure ([2]; 423.94 K): 21.39 ± 0.09 kPa
- vapor or sublimation pressure ([2]; 432.91 K): 28.6 ± 0.093 kPa
- surface tension liquid-gas ([2]; 433.15 K): 8.57 ± 0.12 mN/m
- mass density ([2]; 433.15 K): 804.71 ± 1.8 kg/m3
- vapor or sublimation pressure ([2]; 439.98 K): 35.47 ± 0.097 kPa
- mass density ([2]; 442.9 K): 793.98 ± 1.9 kg/m3
- vapor or sublimation pressure ([2]; 448.41 K): 45.28 ± 0.1 kPa
- mass density ([2]; 453.15 K): 782.6 ± 2 kg/m3
- viscosity ([2]; 453.15 K): 0.46 ± 0.02 mPa·s
- vapor or sublimation pressure ([2]; 455.39 K): 54.85 ± 0.11 kPa
- vapor or sublimation pressure ([2]; 462.39 K): 66.09 ± 0.11 kPa
- viscosity ([2]; 473.15 K): 0.39 ± 0.02 mPa·s
- vapor or sublimation pressure ([2]; 479.53 K): 100.9 ± 0.13 kPa
- viscosity ([2]; 493.15 K): 0.33 ± 0.01 mPa·s

Reference: the NIST ThermoML archive (doi:10.1021/je050173+)
